Results on twelve compounds are retold here after patent US10045985B2, “Heteroaryl compounds as BTK inhibitors and uses thereof” (Merck Patent GmbH, priority 2015, dated 2018).

T1 sequence (Q06187 whole entry): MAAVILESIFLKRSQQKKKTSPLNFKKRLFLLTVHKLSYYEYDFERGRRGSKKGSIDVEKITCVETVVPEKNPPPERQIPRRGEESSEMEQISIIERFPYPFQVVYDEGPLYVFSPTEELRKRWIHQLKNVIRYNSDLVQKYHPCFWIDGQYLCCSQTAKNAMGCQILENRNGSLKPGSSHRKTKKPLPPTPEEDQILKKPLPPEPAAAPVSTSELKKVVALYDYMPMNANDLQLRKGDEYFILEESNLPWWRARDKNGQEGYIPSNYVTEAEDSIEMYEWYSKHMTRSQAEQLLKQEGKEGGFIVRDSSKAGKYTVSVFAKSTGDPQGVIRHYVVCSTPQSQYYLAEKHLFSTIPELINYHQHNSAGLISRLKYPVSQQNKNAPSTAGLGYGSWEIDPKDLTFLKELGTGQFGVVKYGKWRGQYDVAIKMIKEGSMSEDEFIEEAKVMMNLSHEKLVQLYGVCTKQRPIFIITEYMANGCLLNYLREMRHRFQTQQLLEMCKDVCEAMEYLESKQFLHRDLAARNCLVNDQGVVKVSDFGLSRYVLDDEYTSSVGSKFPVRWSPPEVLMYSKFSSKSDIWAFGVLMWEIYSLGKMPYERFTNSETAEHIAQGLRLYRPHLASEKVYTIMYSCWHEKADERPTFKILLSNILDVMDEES

The assay addresses T1, full-length human BTK (Homo sapiens, UniProt Q06187).
T1 construct: full-length human BTK (08-080) from CarnaBio USA, Inc; purchased CarnaBio USA, Inc., Natick, Mass; 08-080
The experiment in a line: Assay A: microfluidic off-chip mobility shift assay for potency against BTK enzyme. It is filed as biochemical. The conditions noted are these: 90 min at 27° C. An excerpt:
Assay A: Microfluidic Off-Chip Mobility Shift Assay Protocol for Potency Assessment Against BTK Enzyme
The protocol below describes microfluidic, off-chip mobility shift kinase assay to measure inherent potency of compounds against BTK enzyme. The mechanics of the assay platform are best described by the vendor (Caliper Life Sciences, a PerkinElmer Company, Hopkinton, Mass.) on their website at the following URL:
Briefly, 2.5× stocks of full-length human BTK (08-080) from CarnaBio USA, Inc., Natick, Mass., 1.6×ATP and appropriate kinKDR peptide substrate (FITC-AHA-EEPLYWSFPAKKK-NH2; developed in-house) were prepared in kinase reaction buffer consisting of 25 mM MgCl2, 0.015% Brij-35 (30%), 100 mM Hepes, pH 7.5, and 10 mM DTT.
5 uL of enzyme buffer and 7.5 uL of ATP/kinKDR peptide substrate mix were added to Matrix (#115304) 384-well, sterile, polypropylene plates (Thermo Fisher Scientific, Hudson, N.H.) with 125 nL of serially diluted compounds prepared in 100% DMSO, and incubated for 90 min. at 27° C. following the incubation period, reactions were stopped by adding 60 uL stop buffer consisting of 100 mM Hepes, pH 7.5, 0.015% Brij-35 (30%), 0.277% Coating Reagent #3 (Caliper Life Sciences, Mountain View, Calif.), 5% DMSO. Stopped reactions were monitored at −2 PSI, −3000 V/−700 V in a LabChip 3000 plate reader from Caliper Life Sciences, a PerkinElmer Company (Hopkinton, Mass.), and the activity was measured by off-chip mobility shift assay measuring the charge/mass difference between substrate and product resulting from peptide phosphorilation. IC50 and efficacy were determined by plotting log [Inhibitor] vs. % Activity in GeneData Screener (Basel, Switzerland).
By IC50 is commonly meant the concentration at which inhibition is half-maximal. Regarding `COCCOc1ccc(Nc2ncc(F)c(N3CCCC4(CCCN(C(=O)c5ccc(C(C)(C)C)cc5)C4)C3)n2)cc1` (stereo not drawn) [Compound 21, (4-(tert-butyl)phenyl)(8-(5-fluoro-2-((4-(2-methoxyethoxy)phenyl)amino)pyrimidin-4-yl)-2,8-diazaspiro[5.5]undecan-2-yl)methanone], the IC50 is greater than 5 µM.

Regarding `COCCOc1ccc(Nc2ncc(F)c(N3CCC[C@@H](NC(=O)c4ccc(C(C)(C)C)cc4)C3)n2)cc1` [Compound 1, (R)0-4-(tert-butyl)-N-(1-(5-fluoro-2-((4-(2-methoxyethoxy)phenyl)amino)pyrimidin-4-yl)piperidin-3-yl)benzamide], the IC50 is greater than 5 µM.

Consider `COCCOc1ccc(Nc2ncc(F)c(N[C@H]3CCC[C@H](NC(=O)c4ccc(C(C)(C)C)cc4)C3)n2)cc1` [Compound 23, 4-(tert-butyl)-N-((1S,3S)-3-((5-fluoro-2-((4-(2-methoxyethoxy)phenyl)amino)pyrimidin-4-yl)amino)cyclohexyl)benzamide], for which the IC50 is 1 to 5 µM.

For the compound `COCCOc1ccc(Nc2ncc(F)c(NCC3CCN(C(=O)c4ccc(C(C)(C)C)cc4)C3)n2)cc1` (racemic) [Compound 8, (4-(tert-butyl)phenyl)(3-(((5-fluoro-2-((4-(2-methoxyethoxy)phenyl)amino)pyrimidin-4-yl)amino)methyl)pyrrolidin-1-yl)methanone], the concentration for half-maximal inhibition (IC50) was greater than 5 µM.

In the case of `COCCOc1ccc(Nc2ncc(F)c(N3CC[C@H](NC(=O)c4ccc(C(C)(C)C)cc4)C3)n2)cc1` [Compound 9, (S)-4-(tert-butyl)-N-(1-(5-fluoro-2-((4-(2-methoxyethoxy)phenyl)amino)pyrimidin-4-yl)pyrrolidin-3-yl)benzamide], the concentration for half-maximal inhibition (IC50) was greater than 5 µM.

Regarding `COCCOc1ccc(Nc2ncc(F)c(NC3CCCC(NC(=O)Cc4ccc(C(C)(C)C)cc4)C3)n2)cc1` (stereo not drawn) [Compound 13, 2-(4-tert-Butyl-phenyl)-N-(3-{5-fluoro-2-[4-(2-methoxy-ethoxy)-phenylamino]-pyrimidin-4-ylamino}-cyclohexyl)-acetamide], the IC50 was greater than 5 µM.

Consider `COCCOc1ccc(Nc2ncc(F)c(N[C@H]3CCC[C@H](NC(=O)c4ccc(C(C)(C)C)cc4)[C@H]3O)n2)cc1` [Compound 25], for which the IC50 fell in the range of 1 to 5 µM.

For `COCCOc1ccc(Nc2ncc(F)c(N3CC4CN(C(=O)c5ccc(C(C)(C)C)cc5)CC4C3)n2)cc1` (stereo not drawn) [Compound 18, (4-(tert-butyl)phenyl)(5-(5-fluoro-2-((4-(2-methoxyethoxy)phenyl)amino)pyrimidin-4-yl)hexahydropyrrolo[3,4-c]pyrrol-2(1H)-yl)methanone], the IC50 was greater than 5 µM.

As to `COCCOc1ccc(Nc2ncc(F)c(N3CCC4CN(C(=O)c5ccc(C(C)(C)C)cc5)CC43)n2)cc1` (stereo not drawn) [Compound 20, (4-(tert-butyl)phenyl)(1-(5-fluoro-2-((4-(2-methoxyethoxy)phenyl)amino)pyrimidin-4-yl)hexahydropyrrolo[3,4-b]pyrrol-5(1H)-yl)methanone], the IC50 was greater than 5 µM.

Turning to `COCCOc1ccc(Nc2ncc(F)c(N3CCCC4(CCN(C(=O)c5ccc(C(C)(C)C)cc5)C4)C3)n2)cc1` (stereo not drawn) [Compound 15, (4-(tert-butyl)phenyl)(7-(5-fluoro-2-((4-(2-methoxyethoxy)phenyl)amino)pyrimidin-4-yl)-2,7-diazaspiro[4.5]decan-2-yl)methanone], the IC50 is greater than 5 µM.

With `COCCOc1ccc(Nc2ncc(F)c(N3CCCC(CNC(=O)c4ccc(C(C)(C)C)cc4)C3)n2)cc1` (racemic) [Compound 7, 4-(tert-butyl)-N-((1-(5-fluoro-2-((4-(2-methoxyethoxy)phenyl)amino)pyrimidin-4-yl)piperidin-3-yl)methyl)benzamide], the IC50 was greater than 5 µM.

As for `COCCOc1ccc(Nc2ncc(F)c(N[C@@H]3CCC[C@@H](NC(=O)c4ccc(C(C)(C)C)cc4)C3)n2)cc1` [Compound 22, 4-(tert-butyl)-N-((1R,3R)-3-((5-fluoro-2-((4-(2-methoxyethoxy)phenyl)amino)pyrimidin-4-yl)amino)cyclohexyl) benzamide], the IC50 is less than 0.1 µM.
